Results: the supplement of paper PMC10733146

Key:
Assay in all cases: viability relative to DMSO control (fraction); higher = less drug effect (more viable cells)
Conditions in all cases: 48 h
[1] = tested on: primary CLL patient cells (S043)
How it was run: (§1)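 The cells were primary mononuclear tumour cells, either fresh or cryopreserved, isolated by Ficoll from blood or bone marrow or derived from processed lymph node. Each well of a 384-well plate received 4 × 10^4 cells onto compounds pre-plated at five concentrations, with one well per concentration. The medium was RPMI-1640 with penicillin/streptomycin, L-glutamine and human serum, and plates stood at 37 °C and 5% CO2 for 48 h. Viability is reported as CellTiter-Glo luminescence relative to the median of 16 inner DMSO wells.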

[2] = tested on: primary AML patient cells (S081)
How it was run: as §1

[3] = tested on: primary AML patient cells (S002)
How it was run: as §1

[4] = tested on: primary MCL patient cells (S063)
How it was run: as §1

[5] = tested on: primary AML patient cells (S025)
How it was run: as §1

[6] = tested on: primary AML patient cells (S012)
How it was run: as §1

[7] = tested on: primary MCL patient cells (S068)
How it was run: as §1

[8] = tested on: primary AML patient cells (S056)
How it was run: as §1

[9] = tested on: primary AML patient cells (S009)
How it was run: as §1

[10] = tested on: primary AML patient cells (S079)
How it was run: as §1

[11] = tested on: primary AML patient cells (S017)
How it was run: as §1

[12] = tested on: primary AML patient cells (S055)
How it was run: as §1

[13] = tested on: primary ALL patient cells (S048)
How it was run: as §1

[14] = tested on: primary AML patient cells (S021)
How it was run: as §1

[15] = tested on: primary T-PLL patient cells (S008)
How it was run: as §1

[16] = tested on: primary AML patient cells (S006)
How it was run: as §1

[17] = tested on: primary MCL patient cells (S053)
How it was run: as §1

[18] = tested on: primary BL patient cells (S005)
How it was run: as §1

[19] = tested on: primary AML patient cells (S072)
How it was run: as §1

[20] = tested on: primary FL patient cells (S022)
How it was run: as §1

Nc1ncn([C@@H]2O[C@H](CO)[C@@H](O)[C@H]2O)c(=O)n1 [Azacytidine (Vidaza)]
viability ([1]; 0.032 µM): 0.937
viability ([1]; 0.16 µM): 1.11
viability ([1]; 0.8 µM): 0.889
viability ([1]; 4 µM): 0.716
viability ([1]; 20 µM): 0.55
viability ([2]; 0.032 µM): 0.955
viability ([2]; 0.16 µM): 1.08
viability ([2]; 0.8 µM): 1.04
viability ([2]; 4 µM): 0.951
viability ([2]; 20 µM): 0.832
viability ([3]; 0.032 µM): 0.946
viability ([3]; 0.16 µM): 0.979
viability ([3]; 0.8 µM): 0.667
viability ([3]; 4 µM): 0.31
viability ([3]; 20 µM): 0.229
viability ([4]; 0.032 µM): 1.04
viability ([4]; 0.16 µM): 1.07
viability ([4]; 0.8 µM): 1.03
viability ([4]; 4 µM): 0.839
viability ([4]; 20 µM): 0.173
viability ([5]; 0.032 µM): 1.07
viability ([5]; 0.16 µM): 0.961
viability ([5]; 0.8 µM): 0.757
viability ([5]; 4 µM): 0.285
viability ([5]; 20 µM): 0.0947
viability ([6]; 0.032 µM): 0.958
viability ([6]; 0.16 µM): 1.01
viability ([6]; 0.8 µM): 1.04
viability ([6]; 4 µM): 0.92
viability ([6]; 20 µM): 0.766
viability ([7]; 0.032 µM): 0.969
viability ([7]; 0.16 µM): 1.04
viability ([7]; 0.8 µM): 0.798
viability ([7]; 4 µM): 0.325
viability ([7]; 20 µM): 0.232
viability ([8]; 0.032 µM): 0.987
viability ([8]; 0.16 µM): 0.997
viability ([8]; 0.8 µM): 0.467
viability ([8]; 4 µM): 0.0878
viability ([8]; 20 µM): 0.078
viability ([9]; 0.032 µM): 0.943
viability ([9]; 0.16 µM): 0.905
viability ([9]; 0.8 µM): 0.916
viability ([9]; 4 µM): 0.695
viability ([9]; 20 µM): 0.468
viability ([10]; 0.032 µM): 0.972
viability ([10]; 0.16 µM): 1.09
viability ([10]; 0.8 µM): 0.942
viability ([10]; 4 µM): 0.671
viability ([10]; 20 µM): 0.304
viability ([11]; 0.032 µM): 0.912
viability ([11]; 0.16 µM): 0.96
viability ([11]; 0.8 µM): 0.935
viability ([11]; 4 µM): 0.661
viability ([11]; 20 µM): 0.562
viability ([12]; 0.032 µM): 1.04
viability ([12]; 0.16 µM): 1.05
viability ([12]; 0.8 µM): 0.806
viability ([12]; 4 µM): 0.233
viability ([12]; 20 µM): 0.0906
viability ([13]; 0.032 µM): 0.926
viability ([13]; 0.16 µM): 0.989
viability ([13]; 0.8 µM): 0.695
viability ([13]; 4 µM): 0.239
viability ([13]; 20 µM): 0.102
viability ([14]; 0.032 µM): 0.982
viability ([14]; 0.16 µM): 1.17
viability ([14]; 0.8 µM): 0.936
viability ([14]; 4 µM): 0.501
viability ([14]; 20 µM): 0.31
viability ([15]; 0.032 µM): 0.965
viability ([15]; 0.16 µM): 1.02
viability ([15]; 0.8 µM): 0.988
viability ([15]; 4 µM): 0.704
viability ([15]; 20 µM): 0.289
viability ([16]; 0.032 µM): 1.07
viability ([16]; 0.16 µM): 0.973
viability ([16]; 0.8 µM): 0.426
viability ([16]; 4 µM): 0.0789
viability ([16]; 20 µM): 0.0614
viability ([17]; 0.032 µM): 0.924
viability ([17]; 0.16 µM): 0.999
viability ([17]; 0.8 µM): 0.587
viability ([17]; 4 µM): 0.351
viability ([17]; 20 µM): 0.289
viability ([18]; 0.032 µM): 0.847
viability ([18]; 0.16 µM): 0.862
viability ([18]; 0.8 µM): 0.841
viability ([18]; 4 µM): 0.766
viability ([18]; 20 µM): 0.708
viability ([19]; 0.032 µM): 1.03
viability ([19]; 0.16 µM): 1.02
viability ([19]; 0.8 µM): 0.958
viability ([19]; 4 µM): 0.83
viability ([19]; 20 µM): 0.652
viability ([20]; 0.032 µM): 1.03
viability ([20]; 0.16 µM): 1
viability ([20]; 0.8 µM): 1.01
viability ([20]; 4 µM): 0.949
viability ([20]; 20 µM): 0.624
